Assay results: patent US8809352B2, “Sulfonamides as inhibitors of Bcl-2 family proteins for the treatments of cancer” (Novartis AG, priority 2009, dated 2014)

Molecular target: BCL2 (Homo sapiens, UniProt P10415)
Assay: Biacore SPR solution inhibition assay of BCL-2 binding to peptide derivatized sensor surfaces
Conditions: SPR competition; 56 nM BCL2 pre-equilibrated with compound one hour; biotinylated BAK, BAD and NOXA peptide surfaces; 25° C.
Summary of the method: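 Solution-competition SPR at 25 °C in HEPES pH 7.4 buffer with 1.25 mM DTT and 3% DMSO: compounds (6-point threefold series, 16 μM to 0.004 nM) pre-equilibrated 1 h with 56 nM BCL2, then injected over captured biotinylated BAK, BAD and NOXA peptide surfaces. Binding levels relative to BCL2-only controls gave % inhibition.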

BCL2, sequence (P10415 whole entry): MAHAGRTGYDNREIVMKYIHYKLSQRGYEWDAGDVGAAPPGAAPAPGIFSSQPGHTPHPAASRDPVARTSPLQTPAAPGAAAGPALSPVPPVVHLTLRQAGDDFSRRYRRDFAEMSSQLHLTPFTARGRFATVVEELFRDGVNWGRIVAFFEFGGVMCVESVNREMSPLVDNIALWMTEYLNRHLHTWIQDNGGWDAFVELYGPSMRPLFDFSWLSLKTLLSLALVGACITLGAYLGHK

Row | SMILES | IC50
1 | CN(C)CC[C@H](CSc1cc(Cl)cc(Cl)c1)Nc1ccc(S(=O)(=O)Nc2ncnc3c2CCN(C2CCN(Cc4ccccc4-c4ccc(Cl)cc4)CC2)C3)cc1S(=O)(=O)C(F)(F)F [Example 41, (R)-N-(7-(1-((4′-chlorobiphenyl-2-yl)-methyl)piperidin-4-yl)-5,6,7,8-tetrahydropyrido[3,4-c]pyrimidin-4-yl)-4-(1-(3,5-dichlorophenylthio)-4-(dimethylamino)butan-2-ylamino)-3-(trifluoromethylsulfonyl)benzenesulfonamide] | 259 nM
2 | CC(c1ccccc1-c1ccc(Cl)cc1)N1CCC(N2CCc3c(ncnc3NS(=O)(=O)c3ccc(N[C@H](CCN4CCOCC4)CSc4ccccc4)c(S(=O)(=O)C(F)(F)F)c3)C2)CC1 (stereo partly drawn) [Example 42, N-(7-(1-(1-(4′chlorobiphenyl-2-yl)ethyl)piperidin-4-yl)-5,6,7,8-tetrahydropyrido[3,4-d]pyrimidin-4-yl)-4-((R)-4-morpholino-1-(phenylthio)butan-2-ylamino)-3-(trifluoromethylsulfonyl)benzenesulfonamide] | 97 nM
3 | CCC[C@H](CSc1ccccc1)Nc1ccc(S(=O)(=O)Nc2ncnc3c2CCN(C2CCN(Cc4ccccc4-c4ccc(Cl)cc4)CC2)C3)cc1S(=O)(=O)C(F)(F)F [Example 43, (R)-N-(7-(1-((4′-chlorobiphenyl-2-yl)methyl)piperidin-4-yl)-5,6,7,8-tetrahydropyrido[3,4-d]pyrimidin-4-yl)-4-(1-(phenylthio)pentan-2-ylamino)-3-(trifluoromethylsulfonyl)benzenesulfonamide] | 2420 nM
4 | C[C@H](CSc1ccccc1)Nc1ccc(S(=O)(=O)Nc2ncnc3c2CCN(C2CCN(Cc4ccccc4-c4ccc(Cl)cc4)CC2)C3)cc1S(=O)(=O)C(F)(F)F [Example 44, N-(7-(1((4′-chlorobiphenyl-2-yl)-methyl)piperidin-4-yl)-5,6,7,8-tetrahydropyrido[3,4-d]pyrimidin-4-yl)-4-(1-(phenylthio)propan-2-ylamino)-3-(trifluoromethylsulfonyl)benzenesulfonamide] | 235 nM
5 | C[C@H](CSc1ccccc1)Nc1ccc(S(=O)(=O)Nc2ncnc3c2CCN(C2CCN(CC4=C(c5ccc(Cl)cc5)CC(C)(C)CC4)CC2)C3)cc1S(=O)(=O)C(F)(F)F [Example 45, N-(7-(1-((2-(4-chlorophenyl)-4,4-dimethylcyclohex-1-enyl)methyl)piperidin-4-yl)-5,6,7,8-tetrahydropyrido[3,4-d]pyrimidin-4-yl)-4-(1-(phenylthio)propan-2-ylamino)-3-(trifluoromethylsulfonyl)benzenesulfonamide] | 365 nM
6 | CC#CCOc1ccccc1CN1CCC(N2CCc3c(ncnc3NS(=O)(=O)c3ccc(N[C@H](CCN(C)C)CSc4ccccc4)c(S(=O)(=O)C(F)(F)F)c3)C2)CC1 [Example 46, (R)-N-(7-(1-(2-(but-2-ynyloxy)benzyl)piperidin-4-yl)-5,6,7,8-tetrahydropyrido[3,4-d]pyrimidin-4-yl)-4-(4-(dimethylamino)-1-(phenylthio)butan-2-ylamino)-3-(trifluoromethylsulfonyl)benzenesulfonamide] | 1770 nM
7 | CN(C)CC[C@H](CSc1ccccc1F)Nc1ccc(S(=O)(=O)Nc2ncnc3c2CCN(C2CCN(Cc4ccccc4-c4ccc(Cl)cc4)CC2)C3)cc1S(=O)(=O)C(F)(F)F [Example 47, N-{7-[1-(4′-Chloro-biphenyl-2-ylmethyl)-piperidin-4-yl]-5,6,7,8-tetrahydro-pyrido[3,4-d]pyrimidin-4-yl}-4-[(R)-3-dimethylamino-1-(2-fluoro-phenylsulfanylmethyl)-propylamino]-3-trifluoromethanesulfonyl-benzene sulfonamide] | 25 nM
8 | CN(C)CC[C@H](CSc1ccccc1)Nc1ccc(S(=O)(=O)Nc2nc(Cl)nc3c2CCN(C2CCN(Cc4ccccc4-c4ccc(Cl)cc4)CC2)C3)cc1S(=O)(=O)C(F)(F)F [Example 50, (R)-N-(2-chloro-7-(1-((4′-chlorobiphenyl-2-yl)methyl)piperidin-4-yl)-5,6,7,8-tetrahydropyrido[3,4-d]pyrimidin-4-yl)-4-(4-(dimethylamino)-1-(phenylthio)butan-2-ylamino)-3-(trifluoromethylsulfonyl)benzenesulfonamide] | 31 nM
9 | CC(c1ccccc1-c1ccc(Cl)cc1)N1CCC(N2CCc3c(ncnc3NS(=O)(=O)c3ccc(N[C@H](CCN(C)C)CSc4ccccc4)c(S(=O)(=O)C(F)(F)F)c3)C2)CC1 (stereo partly drawn) [Example 51, N-(7-(1-(1-(4′-chlorobiphenyl-2-yl)ethyl)piperidin-4-yl)-5,6,7,8-tetrahydropyrido[3,4-d]pyrimidin-4-yl)-4-((R)-4-(dimethylamino)-1-(phenylthio)butan-2-ylamino)-3-(trifluoromethylsulfonyl)benzenesulfonamide] | 35 nM
10 | O=S(=O)(Nc1ncnc2c1CCN(C1CCN(Cc3ccccc3-c3ccc(Cl)cc3)CC1)C2)c1ccc(NCCSc2ccccc2)c(S(=O)(=O)C(F)(F)F)c1 [Example 52] | 1310 nM
11 | CN(C)CC[C@H](CSc1ccccc1)Nc1ccc(S(=O)(=O)Nc2ncnc3c2CCN(C2CCN(Cc4ccccc4-c4ccc(Cl)cc4)CC2)C3)cc1C(F)(F)F [Example 53] | 66 nM
12 | CN(C)CC[C@H](CSc1ccccc1)Nc1ccc(S(=O)(=O)Nc2ncnc3c2CCN(C2CCN(Cc4ccccc4-c4ccc(Cl)cc4)CC2)C3)cc1C#N [Example 54, (R)-N-(7-(1-((4′-chlorobiphenyl-2-yl)methyl)piperidin-4-yl)-5,6,7,8-tetrahydropyrido[3,4-d]pyrimidin-4-yl)-3-cyano-4-(4-(dimethylamino)-1-(phenylthio)butan-2-ylamino)benzenesulfonamide] | 173 nM
13 | CN1CCN(CC[C@H](CSc2ccccc2F)Nc2ccc(S(=O)(=O)Nc3ncnc4c3CCN(C3CCN(CC5=C(c6ccc(Cl)cc6)CC(C)(C)CC5)CC3)C4)cc2S(=O)(=O)C(F)(F)F)CC1 [Example 55, (R)-N-(7-(1-((2-(4-chlorophenyl)-4,4-dimethylcyclohex-1-enyl)methyl)piperidin-4-yl)-5,6,7,8-tetrahydropyrido[3,4-d]pyrimidin-4-yl)-4-(1-(2-fluorophenylthio)-4-(4-methylpiperazin-1-yl)butan-2-ylamino)-3-(trifluoromethylsulfonyl)benzenesulfonamide] | 35 nM
14 | CN1CCN(CC[C@H](CSc2ccccc2F)Nc2ccc(S(=O)(=O)Nc3ncnc4c3CCN(C3CCN(Cc5ccccc5-c5ccc(Cl)cc5)CC3)C4)cc2S(=O)(=O)C(F)(F)F)CC1 [Example 56, (R)-N-(7-(1-((4′-chlorobiphenyl-2-yl)methyl)piperidin-4-yl)-5,6,7,8-tetrahydropyrido[3,4-d]pyrimidin-4-yl)-4-(1-(2-fluorophenylthio)-4-(4-methylpiperazin-1-yl)butan-2-ylamino)-3-(trifluoromethylsulfonyl)benzenesulfonamide] | 27 nM
15 | CN(C)CC[C@H](CSc1cccc(Cl)c1)Nc1ccc(S(=O)(=O)Nc2ncnc3c2CCN(C2CCN(Cc4ccccc4-c4ccc(F)cc4)CC2)C3)cc1S(=O)(=O)C(F)(F)F [Example 57, N-{7-[1-(4′-Fluoro-biphenyl-2-ylmethyl)-piperidin-4-yl]-5,6,7,8-tetrahydro-pyrido[3,4-d]pyrimidin-4-yl}-4-[(R)-1-(3-chloro-phenylsulfanylmethyl)-3-dimethylamino-propylamino]-3-trifluoromethanesulfonyl-benzenesulfonamide] | 99 nM
16 | O=[N+]([O-])c1cc(S(=O)(=O)Nc2ncnc3c2CCN(C2CCN(Cc4ccccc4-c4ccc(Cl)cc4)CC2)C3)ccc1N[C@H](CCN1CCOCC1)CSc1ccccc1 [Example 58] | 66 nM
17 | CCC[C@H](CSc1ccccc1)Nc1ccc(S(=O)(=O)Nc2ncnc3c2CCN(C2CCN(CC4=C(c5ccc(Cl)cc5)CC(C)(C)CC4)CC2)C3)cc1S(=O)(=O)C(F)(F)F [Example 59, N-(7-(1-((2-(4-chlorophenyl)-4,4-dimethylcyclohex-1-enyl)methyl)piperidin-4-yl)-5,6,7,8-tetrahydropyrido[3,4-d]pyrimidin-4-yl)-4-(1-(phenylthio)pentan-2-ylamino)-3-(trifluoromethylsulfonyl)benzenesulfonamide] | 579 nM
18 | COC1(Cc2ccccc2Br)CCC(N2CCc3c(ncnc3NS(=O)(=O)c3ccc(N[C@H](CCN(C)C)CSc4ccccc4)c(S(=O)(=O)C(F)(F)F)c3)C2)CC1 (stereo partly drawn) [Example 61, (R)-N-(7-(4-(2-bromobenzyl)-4-methoxycyclohexyl)-5,6,7,8-tetrahydropyrido[3,4-d]pyrimidin-4-yl)-4-(4-(dimethylamino)-1-(phenylthio)butan-2-ylamino)-3-(trifluoromethylsulfonyl)benzenesulfonamide] | 306 nM
19 | CN(C)CC[C@H](CSc1ccccc1)Nc1ccc(S(=O)(=O)Nc2ncnc3c2CCN(C2CCC(=Cc4ccccc4-c4ccc(Cl)cc4)CC2)C3)cc1S(=O)(=O)C(F)(F)F (stereo partly drawn) [Example 62, N-(7-(4-((4′-chlorobiphenyl-2-yl)methylene)cyclohexyl)-5,6,7,8-tetrahydropyrido[3,4-d]pyrimidin-4-yl)-4-((R)-4-(dimethylamino)-1-(phenylthio)butan-2-ylamino)-3-(trifluoromethylsulfonyl)benzenesulfonamide] | 174 nM
20 | CN(C)CC[C@H](CSc1ccccc1)Nc1ccc(S(=O)(=O)Nc2ncnc3c2CCN(C2CCC(=Cc4ccccc4)CC2)C3)cc1S(=O)(=O)C(F)(F)F (stereo partly drawn) [Example 63] | 1180 nM
21 | O=S(=O)(Nc1ncnc2c1CCN(C1CCN(Cc3ccccc3-c3ccc(Cl)cc3)CC1F)C2)c1ccc(N[C@H](CCN2CCOCC2)CSc2ccccc2)c(S(=O)(=O)C(F)(F)F)c1 (stereo partly drawn) [Example 65, N-(7-(1((4′-Chlorobiphenyl-2-yl)methyl)-3-fluoropiperidin-4-yl)-5,6,7,8-tetrahydropyrido[3,4-d]pyrimidin-4-yl)-4-((R)-4-morpholino-1-(phenylthio)butan-2-ylamino)-3-(trifluoromethylsulfonyl)benzenesulfonamide] | 181 nM
